According to publication PMC9180621, “Preparation of Novel Pyrazolo[4,3-e]tetrazolo[1,5-b][1,2,4]triazine Sulfonamides and Their Experimental and Computational Biological Studies” (International Journal of Molecular Sciences, 2022):
Values joined by “and” are separate entries in the source; they are usually repeats but may differ in a detail not shown here. Identical values can stand only once.

Key:
[1] = test system: PC-3 cells; experiment: MitoTracker Red, mitochondria membrane potential; type: cell-based, human
Description: (§1) The fitness of the mitochondria and changes in MMP were assessed using MitoTracker Red. Data for experimental groups were presented as mean percentage of control group fluorescence intensity ± SD value (Figure 11, Table 2). Mitotracker Red is deposited in the mitochondrial matrix in response to changes in the inner transmembrane potential of the mitochondria. The intensity of fluorescence reflects the fitness of the mitochondria and alters with changes in MMP [91]. BxPC-3 and PC-3 cells were seeded at appropriate density on a 96-well plates (Table 9). […] After appropriate incubation time, cells were incubated with MitoTracker Red (0.1 µM/200 µL PBS/well) for 40 min. Afterward, MitoTracker Red solution was removed from the wells and PBS (200 µL/well) was added. Fluorescence was read at an […] of 581/644 nm using the SpectraMax® i3x Multi-Mode Detection Platform.

[2] = test system: BxPC-3 cells; experiment: MitoTracker Red, mitochondria membrane potential; type: cell-based, human
Description: as §1

[3] = test system: PC-3 cells; experiment: Dual acridine orange/ethidium bromide (AO/EB) fluorescent staining, apoptosis; type: cell-based, human; settings: PC-3, 48 h incubation, control 1.5 ± 0.7%; for mean % of apoptotic cells: AO/EB, ± SD; for % of apoptotic cells, both tested concentrations: IC50 and 2xIC50, AO/EB
Description: (§2) Data are presented as mean percentage of apoptotic cells (early and late apoptotic) ± SD values. The differences between the experimental samples and vehicle control were evaluated by the ANOVA test followed by Tukey’s test (p < 0.05). Experiments were performed in triplicate. For flow cytometry analysis with Annexin V-FITC staining, the approximate number of analyzed cells was (N = 1 × 10^4), contrasting with the dual acridine orange/ethidium bromide (AO/EB) fluorescent staining (N = 200). Acridine orange/ethidium bromide (AO/EB) staining is used to detect nuclear alterations and the development of apoptotic bodies, which are both indicative of apoptosis. Acridine orange penetrates into living cells, emitting green fluorescence after intercalation into DNA. The second dye, ethidium bromide, emits red fluorescence in cells with an altered cell membrane. The cells are divided into three categories as follows: living cells (green nucleus with red orange cytoplasm); apoptotic (green irregularly nuclei with chromatin condensation or fragmentation); and necrotic cells (uniformly orange-stained cell nuclei). Programmed cell death is measured by counting the number of cells that undergo apoptosis under a fluorescent microscope. BxPC-3 and PC-3 cells were seeded at an appropriate density on 12-well plates (Table 9). […] Following the incubation period, cells were incubated with fluorochromes (AO/EB: 100 µM; 1:1, v/v) for 5 min at 37 °C in the dark. Viable, apoptotic, or necrotic cells were distinguished using this method based on differential uptake of fluorescent DNA-binding dyes (AO/EB) with the structural aspect of chromatin condensation in the stained nucleus. Cells were analyzed using a fluorescence microscope (Olympus BX60 F5 Olympus Optical Co., Ltd., Nagano, Japan) at 360 nm. The results were obtained from three independent experiments.

[4] = test system: BxPC-3 cells; experiment: as above; type: cell-based, human; settings: for increase in the apoptotic cell fraction: BxPC-3, both tested concentrations (IC50, 2xIC50), 24 and 48 h incubation
Description: as §2

[5] = test system: PC-3 cells; experiment: MTT assay, cell viability; type: cell-based, human; settings: for IC50: Homo sapiens, PC-3, 72 h incubation, MTT, ± SD
Description: (§3) A statistical program (Graphpad Prism 7) was used to analyze obtained data (MTT test). The dose–response analysis was performed to estimate the inhibitory concentration (IC50) of the tested compounds. The IC50 value is defined as a concentration of the tested compound that leads to a reduction in cell pool viability by 50% compared to the negative control (accepted as 100%). % cell viability=Absorbance value of treated cells−Absorbance value of blank/Absorbance value of untreated cells−Absorbance value of blank×100%
(§4) To estimate cell viability following 72 h incubation with the tested MM-compounds (MM134, MM136, MM137, and MM139), the MTT test was used according to the PN-EN ISO 10993-5. It is a quantitative method based on the tetrazolium yellow dye MTT [3(4,5-dimethyl-2-thiazolyl)-2,5-diphenyl-2H-tetrazolium bromide], which is converted by living cells to a purple product, formazan, the concentration of which was measured colorimetrically. The MTT assay was performed according to the procedure described by Mosmann with modifications. At a density of approximately 8 × 10^3 cells per 100 µL/well, 96-well plates were seeded. Following the given incubation period in controlled conditions (37 °C; 5% CO2), cells were exposed to different concentrations of tested compounds in DMSO (range 0.05–3 µM) in a volume of 100 µL medium per well. Final solvent concentration of DMSO was < 0.5% v/v. The experimental design included vehicle controls and blanks (wells without cells).
(§5) After 72 h of incubation of cells with tested MM-compounds, 20 µL of MTT tetrazolium salt (5 mg/mL in PBS) was added to each well, and plates were incubated once again in a humidified atmosphere for 3 h (37 °C; 5% CO2). Following the incubation time, the solutions were removed and 100 µL of DMSO was added to dissolve the formazan complexes. Subsequently, a spectrophotometer (microplate reader Power Wave XS BioTek Instruments, Inc., Winooski, VT, USA) reading was performed at 570 nm. The experiments were performed in duplicates.

[6] = test system: WI-38 cells; experiment: MTT assay, cell viability; type: cell-based; settings: WI-38 normal human fibroblasts, 72 h incubation, ± SD
Description: as §3, §4, §5

[7] = test system: L929 cells; experiment: MTT assay, cell viability; type: cell-based; settings: L929 normal mouse fibroblasts, 72 h incubation, ± SD
Description: as §3, §4, §5

[8] = test system: BxPC-3 cells; experiment: MTT assay, cell viability; type: cell-based; settings: Homo sapiens, BxPC-3, 72 h incubation, ± SD
Description: as §3, §4, §5

[9] = PC-3, 24 h incubation, 0.5IC50, ± SD
[10] = PC-3, 24 h incubation, 2xIC50, ± SD
[11] = PC-3, 24 h incubation, IC50, ± SD
[12] = PC-3, 48 h incubation, 0.5IC50, ± SD
[13] = PC-3, 48 h incubation, 2xIC50, ± SD
[14] = PC-3, 48 h incubation, IC50, ± SD
[15] = BxPC-3, 24 h incubation, 0.5IC50, ± SD
[16] = BxPC-3, 24 h incubation, 2xIC50, ± SD
[17] = BxPC-3, 24 h incubation, IC50, ± SD
[18] = BxPC-3, 48 h incubation, 0.5IC50, ± SD
[19] = BxPC-3, 48 h incubation, 2xIC50, ± SD
[20] = BxPC-3, 48 h incubation, IC50, ± SD

Row | IC50 [5] [nM] | IC50 [8] [nM] | SMILES | mean percentage of control group fluorescence intensity (MMP) [1, 9] [%] | mean percentage of control group fluorescence intensity (MMP) [1, 10] | mean percentage of control group fluorescence intensity (MMP) [1, 11] [%] | mean percentage of control group fluorescence intensity (MMP) [1, 12] [%] | mean percentage of control group fluorescence intensity (MMP) [1, 13] [%] | mean percentage of control group fluorescence intensity (MMP) [1, 14] [%] | mean percentage of control group fluorescence intensity (MMP) [2, 15] [%] | mean percentage of control group fluorescence intensity (MMP) [2, 16] [%] | mean percentage of control group fluorescence intensity (MMP) [2, 17] [%] | mean percentage of control group fluorescence intensity (MMP) [2, 18] [%] | mean percentage of control group fluorescence intensity (MMP) [2, 19] [%] | mean percentage of control group fluorescence intensity (MMP) [2, 20] [%] | mean % of apoptotic cells ([3]; 2xIC50 concentration) [%] | mean % of apoptotic cells ([3]; IC50 concentration) [%] | increase in the apoptotic cell fraction [4] | IC50 [6] [nM] | IC50 [7] [nM] | % of apoptotic cells, both tested concentrations [3] | other results
1 | 160 ± 20 | 320 ± 100 | Cc1nn(-c2ccc(S(=O)(=O)NCCN3CCOCC3)cc2)c2nn3nnnc3nc12 [MM134] | 100.35 ± 1.57 | 82.34 ± 2.13% | 82.5 ± 2.21 | 82.1 ± 14.45 | 64.56 ± 3.33 | 80.26 ± 13.44 | 88.19 ± 13.62 | 78.31 ± 14.34 | 81.23 ± 11.94 | 79.98 ± 11.47 | 68.95 ± 7.78 | 66.04 ± 16.7 | 11 ± 1.41 | 8.5 ± 0.7 | statistically significant increase | 650 ± 70 | 580 ± 5 |  | times higher cytotoxic activity in PC-3 compared to normal human fibroblasts (WI-38) ([5]; ratio of MTT IC50, PC-3 vs WI-38): 4 times
2 | 110 ± 7 | 160 ± 40 | Cc1nn(-c2ccc(S(=O)(=O)N3CCN(C)CC3)cc2)c2nn3nnnc3nc12 [MM137] | 96.26 ± 2.83 | 82.5 ± 7.99% | 87.9 ± 2.71 | 78.26 ± 2.62 | 64.19 ± 8.72 | 75.49 ± 5.55 | 89.34 ± 5.91 | 79.22 ± 2.22 | 79.5 ± 3.34 | 84.62 ± 9.01 | 73.8 ± 2.58 | 79.8 ± 6.76 | 24 ± 1.41 | 15 ± 2.82 |  | 270 ± 40 | 180 ± 0.8 | statistically significant increase | increase in apoptotic fraction ([4]; BxPC-3, IC50 concentration, 24 h incubation): did not induce a significant increase
3 | 170 ± 3 | 330 ± 140 | Cc1nn(-c2ccc(S(=O)(=O)N3CCCCC3)cc2)c2nn3nnnc3nc12 [MM139] | 89.2 ± 6.28 | 78.14 ± 6.56% and 78.14 ± 6.55% | 87.28 ± 15.8 | 78.91 ± 15.21 | 61.28 ± 9.16 | 65.93 ± 19.56 | 81.28 ± 14.44 | 64.23 ± 6.08 | 66.73 ± 3.72 | 76.9 ± 6.40 | 65.95 ± 12.53 | 60.35 ± 0.91 | 12.5 ± 0.7 | 13.5 ± 3.53 | statistically significant increase | 540 ± 60 | 260 ± 20 | statistically significant increase | 
